Target: T1, human chemokine receptor 2 isoform B (Homo sapiens, UniProt P41597)
T1 construct: host or cells: CHOK1-CCR2B-A5 (CHO-K1)
T1 sequence (P41597 1-360 isoform P41597-2): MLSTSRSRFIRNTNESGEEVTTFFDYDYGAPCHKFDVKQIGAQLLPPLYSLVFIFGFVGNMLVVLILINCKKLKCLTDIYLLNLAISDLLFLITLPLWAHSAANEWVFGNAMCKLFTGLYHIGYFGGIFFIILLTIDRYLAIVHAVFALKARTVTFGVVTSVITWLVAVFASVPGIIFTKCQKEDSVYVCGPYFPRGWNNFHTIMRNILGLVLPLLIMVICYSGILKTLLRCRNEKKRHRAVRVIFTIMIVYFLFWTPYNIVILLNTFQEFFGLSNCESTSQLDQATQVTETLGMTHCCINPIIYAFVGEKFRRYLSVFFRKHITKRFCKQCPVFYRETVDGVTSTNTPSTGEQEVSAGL
Assay: Calcium mobilization assay (CHOK1-CCR2B-A5 cells, FLIPR, MCP-1 stimulated)
Type: cell-based
Conditions: Ca mobilisation assay for CCR2, antagonist activity, 50% inhibition of specific calcium increases after 20 nM MCP-1
Method: CHOK1-CCR2B-A5 cells (from Euroscreen) stably overexpressing the human chemokine receptor 2 isoform B were cultured in Nutrient Hams F12 medium supplemented with 5% FBS, 100 U/ml penicillin, 100 μg/ml streptomycin, 400 μg/ml G418 and 5 μg/ml puromycin.
For the assay cells were grown overnight in 384-well black clear flat bottom polystyrene plates (Costar) at 37° C. at 5% CO2. After washing with DMEM, 20 mM Hepes, 2.5 mM probenecid, 0.1% BSA (DMEM assay buffer) cells were loaded with 4 μM Fluo-4 in the same DMEM assay buffer for 2 hours at 30° C. Excess dye was removed and cells were washed with DMEM assay buffer. 384-well compound plates were prepared with DMEM assay buffer/0.5% DMSO with or without various concentrations of test compounds. Usually compounds were tested for agonist and antagonist activity.
Test compounds were added to the assay plate and agonist activity was monitored as fluorescence for 80 seconds with a FLIPR (488 nm excitation; 510-570 nm emission; Molecular Devices). After 20-30 min. of incubation at 30° C., 20 nM MCP-1 (R&D; Roche) was added and fluorescence was monitored again for 80 seconds. Increases in intracellular calcium are reported as maximum fluorescence after agonist exposure minus basal fluorescence before exposure. Antagonist activity is indicated as inhibitor concentration required for 50% inhibition of specific calcium increases.

Row | IC50 | Compound
1 | 200 nM | C[C@H]1C(=O)N2[C@@H](CCCN3CCC(F)(F)C3)CC[C@H]2CN1C(=O)Nc1ccc(Cl)c(Cl)c1 [Example 45, (3S,6S,8aS)-6-[3-(3,3-Difluoro-pyrrolidin-1-yl)-propyl]-3-methyl-4-oxo-hexahydro-pyrrolo[1,2-a]pyrazine-2-carboxylic acid (3,4-dichloro-phenyl)-amide]
2 | 26.4 nM | C[C@H]1C(=O)N2[C@@H](CCCN3CCC(F)(F)CC3)CC[C@H]2CN1C(=O)Nc1ccc(Cl)c(Cl)c1 [Example 46, (3S,6S,8aS)-6-[3-(4,4-Difluoro-piperidin-1-yl)-propyl]-3-methyl-4-oxo-hexahydro-pyrrolo[1,2-a]pyrazine-2-carboxylic acid (3,4-dichloro-phenyl)-amide]
3 | 67.4 nM | C[C@H]1C(=O)N2[C@@H](CCCN3CCCC(F)(F)C3)CC[C@H]2CN1C(=O)Nc1ccc(Cl)c(Cl)c1 [Example 47, (3S,6S,8aS)-6-[3-(3,3-Difluoro-piperidin-1-yl)-propyl]-3-methyl-4-oxo-hexahydro-pyrrolo[1,2-a]pyrazine-2-carboxylic acid (3,4-dichloro-phenyl)-amide]
4 | 144 nM | O=C(Nc1ccc(Cl)c(Cl)c1)N1CCC(=O)N2[C@@H](CCN3CCC4(CC4)[C@H](O)C3)CC[C@H]2C1 [Example 49, (7R,9aS)-7-[2-((S)-4-Hydroxy-6-aza-spiro[2.5]oct-6-yl)-ethyl]-5-oxo-hexahydro-pyrrolo[1,2-a][1,4]diazepine-2-carboxylic acid (3,4-dichloro-phenyl)-amide]
5 | 86.9 nM | C[C@H]1C(=O)N2[C@@H](CCC(=O)N3CCC4(CC4)[C@H](O)C3)COC[C@H]2CN1C(=O)Nc1ccc(Cl)c(Cl)c1 [Example 51, (4S,7S,9aR)-4-[3-((S)-4-Hydroxy-6-aza-spiro[2.5]oct-6-yl)-3-oxo-propyl]-7-methyl-6-oxo-hexahydro-pyrazino[2,1-c][1,4]oxazine-8-carboxylic acid (3,4-dichloro-phenyl)-amide]
6 | 14.7 nM | C[C@H]1C(=O)N2[C@@H](CCC(=O)N3CCC4(CC4)[C@H](O)C3)COC[C@H]2CN1C(=O)Nc1ccc(C(F)(F)F)c(Cl)c1 [Example 52, (4S,7S,9aR)—N-(3-chloro-4-(trifluoromethyl)phenyl)-4-(3-((S)-4-hydroxy-6-azaspiro[2.5]octan-6-yl)-3-oxopropyl)-7-methyl-6-oxohexahydropyrazino[2,1-c][1,4]oxazine-8(1H)-carboxamide]
7 | 16.7 nM | C[C@H]1C(=O)N2[C@@H](CCN3CCC4(CC4)C(F)(F)C3)COC[C@H]2CN1C(=O)Nc1ccc(Cl)c(Cl)c1 [Example 53, (4S,7S,9aR)—N-(3,4-dichlorophenyl)-4-(2-(4,4-difluoro-6-azaspiro[2.5]octan-6-yl)ethyl)-7-methyl-6-oxohexahydropyrazino[2,1-c][1,4]oxazine-8(1H)-carboxamide]
8 | 170 nM | C[C@H]1C(=O)N2[C@@H](CCN3CCC4(CC4)C(F)(F)C3)COC[C@H]2CN1C(=O)Nc1cccc(Cl)c1 [Example 54, (4S,7S,9aR)—N-(3-chlorophenyl)-4-(2-(4,4-difluoro-6-azaspiro[2.5]octan-6-yl)ethyl)-7-methyl-6-oxohexahydropyrazino[2,1-c][1,4]oxazine-8(1H)-carboxamide]
9 | 34.3 nM | C[C@H]1C(=O)N2[C@@H](CCN3CCC4(CC4)C(F)(F)C3)COC[C@H]2CN1C(=O)Nc1ccc(C(F)(F)F)c(Cl)c1 [Example 55, (4S,7S,9aR)—N-(3-chloro-4-(trifluoromethyl)phenyl)-4-(2-(4,4-difluoro-6-azaspiro[2.5]octan-6-yl)ethyl)-7-methyl-6-oxohexahydropyrazino[2,1-c][1,4]oxazine-8(1H)-carboxamide]
10 | 81 nM | C[C@H]1C(=O)N2[C@@H](CCN3CCC(F)(F)CC3)COC[C@H]2CN1C(=O)Nc1ccc(Cl)c(Cl)c1 [Example 56, (4S,7S,9aR)—N-(3,4-dichlorophenyl)-4-(2-(4,4-difluoropiperidin-1-yl)ethyl)-7-methyl-6-oxohexahydropyrazino[2,1-c][1,4]oxazine-8(1H)-carboxamide]
11 | 119 nM | C[C@H]1C(=O)N2[C@@H](CCN3CCC(F)(F)CC3)COC[C@H]2CN1C(=O)Nc1ccc(C(F)(F)F)c(Cl)c1 [Example 57, (4S,7S,9aR)—N-(3-chloro-4-(trifluoromethyl)phenyl)-4-(2-(4,4-difluoropiperidin-1-yl)ethyl)-7-methyl-6-oxohexahydropyrazino[2,1-c][1,4]oxazine-8(1H)-carboxamide]
12 | 414 nM | C[C@H]1C(=O)N2[C@@H](CCN3CCS(=O)(=O)CC3)COC[C@H]2CN1C(=O)Nc1ccc(Cl)c(Cl)c1 [Example 58, (4S,7S,9aR)-4-[2-(1,1-Dioxo-thiomorpholin-4-yl)-ethyl]-7-methyl-6-oxo-hexahydro-pyrazino[2,1-c][1,4]oxazine-8-carboxylic acid (3,4-dichloro-phenyl)-amide]
13 | 189 nM | C[C@H]1C(=O)N2[C@@H](CCN3CCS(=O)(=O)CC3)COC[C@H]2CN1C(=O)Nc1ccc(C(F)(F)F)c(Cl)c1 [Example 59, (4S,7S,9aR)-4-[2-(1,1-Dioxo-6-thiomorpholin-4-yl)-ethyl]-7-methyl-6-oxo-hexahydro-pyrazino[2,1-c][1,4]oxazine-8-carboxylic acid (3-chloro-4-trifluoromethyl-phenyl)-amide]
14 | 48.2 nM | C[C@H]1C(=O)N2[C@@H](CCCN3CCC4(CC4)C(F)(F)C3)COC[C@H]2CN1C(=O)Nc1ccc(Cl)c(Cl)c1 [Example 60, (4S,7S,9aR)—N-(3,4-dichlorophenyl)-4-(3-(4,4-difluoro-6-azaspiro[2.5]octan-6-yl)propyl)-7-methyl-6-oxohexahydropyrazino[2,1-c][1,4]oxazine-8(1H)-carboxamide]
15 | 34.1 nM | C[C@H]1C(=O)N2[C@@H](CCCN3CCC4(CC4)C(F)(F)C3)COC[C@H]2CN1C(=O)Nc1ccc(C(F)(F)F)c(Cl)c1 [Example 61, (4S,7S,9aR)—N-(3-chloro-4-(trifluoromethyl)phenyl)-4-(3-(4,4-difluoro-6-azaspiro[2.5]octan-6-yl)propyl)-7-methyl-6-oxohexahydropyrazino[2,1-c][1,4]oxazine-8(1H)-carboxamide]
16 | 220 nM | C[C@H]1C(=O)N2[C@@H](CCC(=O)N3CCC4(CC4)[C@H](O)C3)CCC[C@H]2CN1C(=O)/C=C/c1ccc(F)c(Cl)c1 [Example 62, (3S,6R,9aS)-2-[(E)-3-(3-Chloro-4-fluoro-phenyl)-acryloyl]-6-[3-((S)-4-hydroxy-6-aza-spiro[2.5]oct-6-yl)-3-oxo-propyl]-3-methyl-octahydro-pyrido[1,2-a]pyrazin-4-one]
17 | 10.8 nM | C[C@H]1C(=O)N2[C@@H](CCC(=O)N3CCC4(CC4)[C@H](O)C3)CCC[C@H]2CN1C(=O)Nc1ccc(Cl)c(Cl)c1 [Example 63, (3S,6R,9aS)-6-[3-((S)-4-Hydroxy-6-aza-spiro[2.5]oct-6-yl)-3-oxo-propyl]-3-methyl-4-oxo-octahydro-pyrido[1,2-a]pyrazine-2-carboxylic acid (3,4-dichloro-phenyl)-amide]
18 | 14.3 nM | C[C@H]1C(=O)N2[C@@H](CCC(=O)N3CCC4(CC4)[C@H](O)C3)CCC[C@H]2CN1C(=O)Nc1ccc(C(F)(F)F)c(Cl)c1 [Example 64, (3S,6R,9aS)-6-[3-((S)-4-Hydroxy-6-aza-spiro[2.5]oct-6-yl)-3-oxo-propyl]-3-methyl-4-oxo-octahydro-pyrido[1,2-a]pyrazine-2-carboxylic acid (3-chloro-4-trifluoromethyl-phenyl)-amide]
19 | 2.2 nM | C[C@H]1C(=O)N2[C@@H](CCN3CCC4(CC4)[C@H](O)C3)CCC[C@H]2CN1C(=O)Nc1ccc(Cl)c(Cl)c1 [Example 65, (3S,6R,9aS)-6-[2-((S)-4-Hydroxy-6-aza-spiro[2.5]oct-6-yl)-ethyl]-3-methyl-4-oxo-octahydro-pyrido[1,2-a]pyrazine-2-carboxylic acid (3,4-dichloro-phenyl)-amide]
20 | 3 nM | C[C@H]1C(=O)N2[C@@H](CCN3CCC4(CC4)[C@H](O)C3)CCC[C@H]2CN1C(=O)Nc1cccc(Cl)c1 [Example 66, (3S,6R,9aS)-6-[2-((S)-4-Hydroxy-6-aza-spiro[2.5]oct-6-yl)-ethyl]-3-methyl-4-oxo-octahydro-pyrido[1,2-a]pyrazine-2-carboxylic acid (3-chloro-phenyl)-amide]
21 | 7.9 nM | C[C@H]1C(=O)N2[C@@H](CCN3CCC4(CC4)[C@H](O)C3)CCC[C@H]2CN1C(=O)Nc1cccc(F)c1 [Example 67, (3S,6R,9aS)-6-[2-((S)-4-Hydroxy-6-aza-spiro[2.5]oct-6-yl)-ethyl]-3-methyl-4-oxo-octahydro-pyrido[1,2-a]pyrazine-2-carboxylic acid (3-fluoro-phenyl)-amide]

From patent US8471004B2, “Bicyclic compounds” (Hoffman-La Roche Inc., priority 2009, dated 2013)
